Data: US20110236461A1, “METHODS FOR STIMULATING CHONDROGENESIS UTILIZING A POTASSIUM CHANNEL INHIBITOR” (priority 2008, published 2011)

Assays:
[1] = system: primary limb mesenchymal (PLM) cultures; assay: alcian blue staining of PLM cultures; type: cell-based, murine; settings: PLM transfection assays and alcian blue staining experiments
Procedure: Primary limb mesenchymal (PLM) cultures were established from CD-1 murine embryonic limbs (E11.5) as previously described (Hoffman et al., J. Cell 174:101-13 (2006); Weston et al., J. Cell Biol., 158:39-51 (2002)). Limb mesenchyme was dissociated by dispase treatment and a single cell suspension was obtained by filtration through a […] cell strainer (BD Biosciences). PLM cells were pelleted by centrifugation at 200×g and resuspended to produce a stock cell suspension at a concentration of 2.0×10^7 cells/ml. Cells were used for transfection (Example 2) or for establishment of cultures for alcian blue staining. For the latter, 10 μl of PLM cells were spotted into the well of a 24-well plate, and allowed to adhere for 1 h. Culture medium consisting of 60% Ham's F12 nutrient mix/40% Dulbecco's modified Eagle's medium (DMEM) and supplemented with 10% FBS (Qualified, Invitrogen) was added to each well; this time was considered T=0. Cultures were maintained for a period of up to 4 days, and culture media was replaced on alternate days to minimize handling. For alcian blue staining, culture medium was aspirated and cells were washed once with PBS. Cultures were fixed in 95% ethanol at −20° C. overnight. Fixative was removed by aspiration and cells were sequentially washed once with PBS, followed by 0.2M HCl. Cells were stained overnight with a 1% alcian blue solution prepared in 0.2M HCl.

Mmp13 = Mmp13 mRNA in murine limb bud-derived high-density cultures, TaqMan real-time PCR; type: cell-based; settings: BMP4 20 ng/ml, BAB 10 μM, 4310 100 nM; RNA at five and ten days; normalized to 5-day control
Procedure: Murine limb bud-derived high-density cultures were established as previously described (Hoffman 2006). Media was replaced every three days. After 24 hours of culture, compounds were added at the following final concentrations: BMP4 (20 ng/ml), BAB (10 μM), and 4310 (100 nM). After 72 hours of culture, ascorbic acid and beta-glycerol phosphate were added to the culture at final concentrations of 126 μM and 1 mM, respectively. RNA was isolated from cultures at five and ten days. Gene expression was assessed using real-time PCR with TaqMan® probe and primer sets (Applied Biosystems, Taqman Gene Expression Assay Mm00439491_m1). All gene expression levels were normalized to the 5-day control (set at 100%). Results are shown in FIG. 7 and are the average of two replicates.

[2] = biological target: T1, Kv4.2 potassium channel encoded by Kcnd2 (Homo sapiens, UniProt Q9NZV8); settings: Winkelman et al. 2005; cited from earlier work
T1 sequence (Q9NZV8 1-630): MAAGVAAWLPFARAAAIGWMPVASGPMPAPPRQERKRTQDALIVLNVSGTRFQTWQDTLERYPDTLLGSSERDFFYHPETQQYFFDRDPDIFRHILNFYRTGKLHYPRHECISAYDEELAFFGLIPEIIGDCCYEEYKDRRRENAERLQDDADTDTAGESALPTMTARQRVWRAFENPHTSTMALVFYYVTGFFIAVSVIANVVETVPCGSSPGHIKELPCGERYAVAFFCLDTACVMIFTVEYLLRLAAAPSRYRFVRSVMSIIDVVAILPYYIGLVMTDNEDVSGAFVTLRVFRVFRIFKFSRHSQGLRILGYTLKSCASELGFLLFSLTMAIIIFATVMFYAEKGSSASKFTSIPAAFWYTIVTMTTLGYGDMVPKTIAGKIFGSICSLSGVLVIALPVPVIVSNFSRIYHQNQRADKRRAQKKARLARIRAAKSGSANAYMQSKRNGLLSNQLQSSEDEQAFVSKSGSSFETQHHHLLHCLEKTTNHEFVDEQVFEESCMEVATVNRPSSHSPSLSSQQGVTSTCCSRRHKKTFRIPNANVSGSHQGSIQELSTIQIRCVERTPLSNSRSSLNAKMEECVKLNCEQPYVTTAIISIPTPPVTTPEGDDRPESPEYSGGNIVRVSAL

pGL3(4×48) reporter = pGL3(4×48) reporter in high-density murine limb bud-derived cultures, compounds alone or in combination; type: cell-based; settings: BMP4 20 ng/ml, BAB 10 μM, 4310 100 nM; 24 h and 72 h after treatment; normalized to untreated controls
Procedure: High-density murine limb bud-derived cultures were established as previously described (Hoffman 2006). Media was replaced every two days. Cells were transfected on day 0 with pGL3(4×48) (reporter) and phRL-SV40 (to normalize transfection efficiency) plasmids using Effectene transfection reagent (Qiagen). Twenty-four hours after transfection, cells were treated with the following final concentrations of compounds, either individually or in combination: BMP4 (20 ng/ml), butamben (BAB) (10 μM), and the pan-RAR antagonist 4310 (100 nM). Lysates were collected at 24 h and 72 h after treatment. Luciferase activity was measured using the Dual-Luciferase® kit according to the manufacturer's instructions (Promega). Reporter activity was normalized to untreated controls (−) on the same day.

Sox9 = Sox9 expression in PLM cultures by RT-qPCR; type: cell-based, murine; settings: PLM cultures treated for 1 or 3 days, relative to control
Procedure: (§1) Primary limb mesenchymal (PLM) cultures were established from CD-1 murine embryonic limbs (E11.5) as previously described (Hoffman et al., J. Cell 174:101-13 (2006); Weston et al., J. Cell Biol., 158:39-51 (2002)). Limb mesenchyme was dissociated by dispase treatment and a single cell suspension was obtained by filtration through a […] cell strainer (BD Biosciences). PLM cells were pelleted by centrifugation at 200×g and resuspended to produce a stock cell suspension at a concentration of 2.0×10^7 cells/ml. Cells were used for transfection (Example 2) or for establishment of cultures for alcian blue staining.
To follow the expression of transcripts for Kcnd2 and Sox9, quantitative real-time PCR was performed using the 7500 Fast Sequence Detection System (Applied Biosystems). The primer/probe set used for detection of Sox9 was as described in Weston et al., J. Cell Biol., 158:39-51 (2002). For detection of all other transcripts, TaqMan Gene Expression Assays (Applied Biosystems) were used. Total RNA was isolated from primary cultures, and an aliquot was reverse transcribed to cDNA using a High Capacity cDNA Archive kit (Applied Biosystems). Quantification was performed using ˜10 ng of total RNA and the expression of all genes relative to endogenous rRNA was determined using TaqMan Ribosomal Control Reagents (Applied Biosystems). […]

[3] = system: voltage-gated potassium channel Kv1 and 4 classes; settings: Winkelman et al. 2005; Beekwilder et al. 2003; cited from earlier work
[4] = system: pGL3(4×48) reporter gene (Sox5/6/9 binding sites); assay: PLM transfection assay, pGL3(4×48) luciferase reporter; type: cell-based, murine; settings: PLM cultures, relative to control
Procedure: as §1
Stock plasmid DNAs were standardized to a concentration of 1 mg/ml. For co-transfections, a ratio of 3:1 gene of interest to reporter gene was used. Luciferase reporter genes consist of a firefly reporter gene, pGL3(4×48), and a Renilla (Renilla reniformis) luciferase reporter phRL-SV40 to normalize for transfection efficiency. Transfections were carried out using Effectene reagent (Qiagen). The pGL3(4×48) reporter contains four repeats of a Sox5/6/9 binding site. Reporter plasmids containing Sox5/6/9 binding sites (pGL3[4×48]) were previously described (Weston et al., J. Cell Biol., 158:39-51 (2002)).
This dose range is consistent with previous studies on butamben binding and inhibition of potassium channels. […]

Molecule	chondrogenic activity [1]	Mmp13 expression (Mmp13)	block of Kv4.2 potassium channel [2]	pGL3(4×48) reporter gene activity (pGL3(4×48) reporter)	Sox9 expression (Sox9)	block of voltage-gated potassium channel Kv1 and 4 classes [3]	activity of chondrogenic responsive reporter gene pGL3(4×48) [4]
CCCCOC(=O)c1ccc(N)cc1 [butamben, butyl 4-aminobenzoate]	low micromolar concentrations of butamben stimulate chondrogenic activity	markedly decreased	blocked	increased	increased Sox9 expression	blocks	significantly increase
Nc1ccncc1 [4-AP, 4-aminopyridine]	–	–	–	–	–	–	significantly induces
BMP4: bone morphogenetic protein-4 (protein, UniProt P12644 293-408, looked up) Bone morphogenetic protein 4: SPKHHSQRARKKNKNCRRHSLYVDFSDVGWNDWIVAPPGYQAFYCHGDCPFPLADHLNSTNHAIVQTLVNSVNSSIPKACCVPTELSAISMLYLDEYDKVVLKNYQEMVVEGCGCR	–	increased	–	increased	–	–	–
